These results are taken from ChEMBL document CHEMBL2169819, “Synthesis and biological evaluation of 2-amino-3-(4-chlorobenzoyl)-4-[(4-arylpiperazin-1-yl)methyl]-5-substituted-thiophenes. effect of the 5-modification on allosteric enhancer activity at the A1 adenosine receptor” (J Med Chem, 2012).

The target in assay [1] is T1, Adenosine receptor A1 (Homo sapiens) (UniProt P30542).
T1 sequence (whole entry): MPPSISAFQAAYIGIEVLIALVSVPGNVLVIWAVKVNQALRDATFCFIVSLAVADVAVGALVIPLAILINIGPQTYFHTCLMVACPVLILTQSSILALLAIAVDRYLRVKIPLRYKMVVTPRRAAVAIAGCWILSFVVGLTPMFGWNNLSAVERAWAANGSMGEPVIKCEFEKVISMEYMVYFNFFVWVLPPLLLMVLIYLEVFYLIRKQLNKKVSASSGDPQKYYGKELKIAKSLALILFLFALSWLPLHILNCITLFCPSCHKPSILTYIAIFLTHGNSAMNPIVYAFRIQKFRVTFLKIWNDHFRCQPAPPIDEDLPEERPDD
The assay can be described thus: Displacement of [3H]DPCPX from human adenosine A1 receptor expressed in CHO cells at 10 uM after 120 mins by scintillation counting. The class given is cell-based.

Assay [2] has as its target T1, Adenosine receptor A1 (Homo sapiens). As to the kind of experiment: Allosteric enhancing activity at human adenosine A1 receptor expressed in CHO cells assessed as inhibition of forskolin-stimulated cAMP accumulation at 10 uM incubated for 10 mins prior to forskolin-stimulation measured after 5 mins by competition protein binding assay. It counts as functional, cell-based.

Assay [3] shares this target. As to the kind of experiment: Allosteric enhancing activity at human adenosine A1 receptor expressed in CHO cells assessed as increase in [3H]-2-chloro-N6-cyclopentyladenosine Bmax at 10 uM after 90 mins relative to control. The class given is cell-based.
The target in assay [4] is T2, Adenosine receptor A3 (Homo sapiens) (UniProt P0DMS8).
T2 sequence (whole entry): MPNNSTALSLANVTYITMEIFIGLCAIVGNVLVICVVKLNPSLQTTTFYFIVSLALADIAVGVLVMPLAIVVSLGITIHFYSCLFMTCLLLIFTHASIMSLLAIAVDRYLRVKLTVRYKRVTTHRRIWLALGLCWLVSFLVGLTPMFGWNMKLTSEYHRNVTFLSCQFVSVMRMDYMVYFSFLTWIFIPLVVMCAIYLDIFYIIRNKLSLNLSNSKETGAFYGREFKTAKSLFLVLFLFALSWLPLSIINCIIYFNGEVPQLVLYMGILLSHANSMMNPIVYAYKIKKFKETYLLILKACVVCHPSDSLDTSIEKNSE
The assay can be described thus: Displacement of [3H]MRE-3008-F20 from human adenosine A3 receptor expressed in CHO cells at 10 uM after 120 mins by scintillation counting. It counts as cell-based.

In assay [5] the target is T1, Adenosine receptor A1 (Homo sapiens). The assay can be described thus: Allosteric enhancing activity at human adenosine A1 receptor expressed in CHO cells assessed as increase in CCPA-induced [3H]DPCPX displacement at 10 uM after 90 mins relative to control. It counts as cell-based.
Assay [6] has the same target. As to the kind of experiment: Allosteric enhancing activity at human adenosine A1 receptor expressed in CHO cells assessed as inhibition of forskolin-stimulated cAMP accumulation at 100 nM incubated for 10 mins prior to forskolin-stimulation measured after 5 mins by competition protein binding assay in presence of 2-chloro-N6-cyclopentyladenosine. It counts as functional, cell-based.

For assay [7], the target named is Adenosine receptor A2a (Homo sapiens) (UniProt P29274). As to the kind of experiment: Displacement of [3H]ZM241385 from human adenosine A2A receptor expressed in CHO cells at 10 uM after 120 mins by scintillation counting. It counts as cell-based.

SMILES strings stand for the structures.

Chain of Adenosine receptor A2a (Homo sapiens) (P29274 whole entry): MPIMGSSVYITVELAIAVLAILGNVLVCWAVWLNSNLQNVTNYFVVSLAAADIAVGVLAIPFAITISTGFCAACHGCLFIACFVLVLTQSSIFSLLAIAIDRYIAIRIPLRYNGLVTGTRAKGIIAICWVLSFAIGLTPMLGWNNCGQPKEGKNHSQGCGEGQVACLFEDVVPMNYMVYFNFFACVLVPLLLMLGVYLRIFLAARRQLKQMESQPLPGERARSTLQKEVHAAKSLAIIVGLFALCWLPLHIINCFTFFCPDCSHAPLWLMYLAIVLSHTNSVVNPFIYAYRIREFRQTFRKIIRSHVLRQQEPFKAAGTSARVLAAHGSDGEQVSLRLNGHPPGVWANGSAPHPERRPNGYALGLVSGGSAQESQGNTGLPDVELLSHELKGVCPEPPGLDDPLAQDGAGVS

`Nc1sc(-c2ccccc2)c(CN2CCN(c3ccccc3C(F)(F)F)CC2)c1C(=O)c1ccc(Cl)cc1`: the inhibition in assay [1] was under 12%; in assay [2], 62%; in assay [4], under 12%; in assay [6], 66%; in assay [7], under 12%. Also, the fold change (FC) in assay [3] came to 8.2. For the same compound, in assay [5], the Ratio Ki worked out at 7.6.

With `CCc1sc(N)c(C(=O)c2ccc(Cl)cc2)c1CN1CCN(c2ccccc2)CC1`, the inhibition in assay [1] was under 12%; in assay [2] it was 57%; in assay [4], under 12%; in assay [6], 50%; in assay [7] it was under 12%. Besides, in assay [3], the fold change (FC) was found to be 5.5. Moreover, in assay [5], the Ratio Ki worked out at 4.9.

Take `Nc1sc(-c2ccc(Cl)cc2)c(CN2CCN(c3ccccc3)CC2)c1C(=O)c1ccc(Cl)cc1`: the inhibition is under 12% in assay [1]; 75% in assay [2]; under 12% in assay [4]; 72% in assay [6]; under 12% in assay [7]. Moreover, the fold change (FC) in assay [3] was 10.2. In addition, in assay [5], the Ratio Ki is 9.5.

In the case of `Nc1sc(-c2ccc(Cl)cc2)c(CN2CCN(c3cccc(C(F)(F)F)c3)CC2)c1C(=O)c1ccc(Cl)cc1`, the inhibition in assay [1] is under 12%; in assay [2], 81%; in assay [4], under 12%; in assay [6], 78%; in assay [7] it was under 12%. Besides, the fold change (FC) in assay [3] was determined as 11.8. In addition, the Ratio Ki in assay [5] stood at 13.

With `Nc1sc(-c2ccc(Cl)cc2)c(CN2CCN(c3ccc(F)cc3)CC2)c1C(=O)c1ccc(Cl)cc1`, the inhibition was under 12% in assay [1]; 71% in assay [2]; under 12% in assay [4]; 68% in assay [6]; under 12% in assay [7]. Also, in assay [3], the fold change (FC) was 9.5. Further, the Ratio Ki in assay [5] worked out at 8.3.

For `Cc1sc(N)c(C(=O)c2ccc(Cl)cc2)c1CN1CCN(c2ccc(C(F)(F)F)cc2)CC1`, the inhibition in assay [1] is under 12%; in assay [2], 60%; in assay [4] it was under 12%; in assay [6] it was 61%; in assay [7] it was under 12%. Besides, the fold change (FC) in assay [3] is 7.6. For the same compound, the Ratio Ki in assay [5] is 6.8.

As to `Cc1sc(N)c(C(=O)c2ccc(Cl)cc2)c1CN1CCN(c2ccc(Cl)c(C(F)(F)F)c2)CC1`, the inhibition is under 12% in assay [1]; 52% in assay [2]; under 12% in assay [4]; 48% in assay [6]; under 12% in assay [7]. Further, in assay [3], the fold change (FC) was 5.1. Further, the Ratio Ki in assay [5] was found to be 4.6.

For the compound `Cc1sc(N)c(C(=O)c2ccc(Cl)cc2)c1CN1CCN(c2cccc(C(F)(F)F)c2)CC1`, the inhibition in assay [1] was under 12%; in assay [2], 51%; in assay [4], under 12%; in assay [6] it was 52%; in assay [7], under 12%. In assay [3], the fold change (FC) came out at 6.2. Moreover, the Ratio Ki in assay [5] amounted to 5.7.

`Cc1ccc(N2CCN(Cc3c(C)sc(N)c3C(=O)c3ccc(Cl)cc3)CC2)cc1`: the inhibition in assay [1] was under 12%; in assay [2], 61%; in assay [4], under 12%; in assay [6] it was 58%; in assay [7] it was under 12%. Besides, the fold change (FC) in assay [3] worked out at 6.6. Further, the Ratio Ki in assay [5] was determined as 5.9.

In the case of `Cc1sc(N)c(C(=O)c2ccc(Cl)cc2)c1CN1CCN(c2ccc(I)cc2)CC1`, the inhibition was under 12% in assay [1]; 54% in assay [2]; under 12% in assay [4]; 45% in assay [6]; under 12% in assay [7]. In assay [3], the fold change (FC) is 5.4. Moreover, in assay [5], the Ratio Ki was found to be 4.8.

For the compound `Cc1sc(N)c(C(=O)c2ccc(Cl)cc2)c1CN1CCN(c2ccc(F)cc2)CC1`, the inhibition in assay [1] is under 12%; in assay [2], 50%; in assay [4] it was under 12%; in assay [6] it was 53%; in assay [7], under 12%. Further, the fold change (FC) in assay [3] came out at 5.9. The Ratio Ki in assay [5] worked out at 5.2.

For the compound `Cc1sc(N)c(C(=O)c2ccc(Cl)cc2)c1CN1CCN(Cc2ccccc2)CC1`, the inhibition was under 12% in assay [1]; 14% in assay [2]; under 12% in assay [4]; 19% in assay [6]; under 12% in assay [7]. In assay [3], the fold change (FC) was 1.8. In addition, the Ratio Ki in assay [5] is 1.4.

`Nc1sc(Br)c(CN2CCN(c3ccc(F)cc3)CC2)c1C(=O)c1ccc(Cl)cc1`: the inhibition is under 12% in assay [1]; 46% in assay [2]; under 12% in assay [4]; 41% in assay [6]; under 12% in assay [7]. For the same compound, the fold change (FC) in assay [3] is 4.4. In addition, in assay [5], the Ratio Ki stood at 4.1.

Turning to `COc1ccc(N2CCN(Cc3c(C)sc(N)c3C(=O)c3ccc(Cl)cc3)CC2)cc1`, the inhibition in assay [1] was under 12%; in assay [2], 31%; in assay [4] it was under 12%; in assay [6], 30%; in assay [7] it was under 12%. In addition, the fold change (FC) in assay [3] amounted to 3.2. Moreover, the Ratio Ki in assay [5] came to 2.6.

As for `Nc1sc(-c2ccccc2)c(CN2CCN(c3cccc(C(F)(F)F)c3)CC2)c1C(=O)c1ccc(Cl)cc1`, the inhibition in assay [1] is under 12%; in assay [2] it was 63%; in assay [4], under 12%; in assay [6] it was 60%; in assay [7] it was under 12%. Also, the fold change (FC) in assay [3] is 7.5. Besides, the Ratio Ki in assay [5] amounted to 7.1.

`Cc1sc(N)c(C(=O)c2ccc(Cl)cc2)c1CN1CCN(c2ccc(C#N)cc2)CC1`: the inhibition in assay [1] was under 12%; in assay [2], 11%; in assay [4], under 12%; in assay [6] it was 15%; in assay [7] it was under 12%. For the same compound, in assay [3], the fold change (FC) worked out at 1.4. Moreover, the Ratio Ki in assay [5] was 1.2.

Take `Nc1sc(-c2ccccc2)c(CN2CCN(c3ccc(Cl)c(C(F)(F)F)c3)CC2)c1C(=O)c1ccc(Cl)cc1`: the inhibition was under 12% in assay [1]; 64% in assay [2]; under 12% in assay [4]; 65% in assay [6]; under 12% in assay [7]. Further, the fold change (FC) in assay [3] worked out at 8.5. In assay [5], the Ratio Ki is 7.9.

With `Nc1sc(-c2ccccc2)c(CN2CCN(c3ccccc3)CC2)c1C(=O)c1ccc(Cl)cc1`, the inhibition in assay [1] was under 12%; in assay [2], 79%; in assay [4] it was under 12%; in assay [6], 74%; in assay [7], under 12%. For the same compound, the fold change (FC) in assay [3] was 11.5. For the same compound, the Ratio Ki in assay [5] is 8.3.

For `Nc1sc(-c2ccccc2)c(CN2CCN(c3ccc(C(F)(F)F)cc3)CC2)c1C(=O)c1ccc(Cl)cc1`, the inhibition in assay [1] is under 12%; in assay [2] it was 72%; in assay [4], under 12%; in assay [6], 73%; in assay [7] it was under 12%. The fold change (FC) in assay [3] was 10.7. The Ratio Ki in assay [5] was 8.9.

Turning to `Nc1sc(-c2ccc(Cl)cc2)c(CN2CCN(c3ccc(OC(F)(F)F)cc3)CC2)c1C(=O)c1ccc(Cl)cc1`, the inhibition in assay [1] was under 12%; in assay [2] it was 78%; in assay [4], under 12%; in assay [6], 72%; in assay [7] it was under 12%. Moreover, the fold change (FC) in assay [3] was determined as 10.7. The Ratio Ki in assay [5] turned out to be 8.9.

In the case of `Nc1sc(-c2ccccc2)c(CN2CCN(c3ccc(Cl)c(Cl)c3)CC2)c1C(=O)c1ccc(Cl)cc1`, the inhibition in assay [1] was under 12%; in assay [2], 55%; in assay [4] it was under 12%; in assay [6], 56%; in assay [7] it was under 12%. Further, the fold change (FC) in assay [3] came to 6.8. Also, the Ratio Ki in assay [5] was 3.
